The results in this text go back to US20240196933A1, “USE OF GOSSYPOL AND A METHANE INHIBITOR FOR REDUCING THE FORMATION OF METHANE EMANATING FROM THE DIGESTIVE ACTIVITIES OF RUMINANTS” (DSM IP ASSETS B.V., priority 2021, published 2024).

This assay relates to rumen liquor. As to the kind of experiment: In vitro test for methane production (modified Hohenheim Forage value Test, HFT). Particulars: TMR feed, 8 h at 39° C. Format: cell-based. Here is the method: In vitro test for methane production: A modified version of the “Hohenheim Forage value Test (HFT)” was used for testing the effect of specific compounds on the rumen functions mimicked by this in-vitro system.
Principle: Feed is gadded into a syringe with a composition of rumen liquor and an appropriate mixture of buffers. The solution is incubated at 39° C. After 8 hours the quantity (and composition) of gas phase produced is measured and put into a formula for conversion.
Sample weighing: The feed stuff (i.e. TMR (44% concentrate, 6% hay, 37% maize silage and 13% grass silage) is sieved to 1 mm and weighed exactly into 64 syringes. 4 of these syringes are the substrate controls, which display the gas production without the effect of the tested compounds. 4 other syringes are positive control (3-NOP, 10 μM). When needed, 4 syringes contain a carrier control (if the test compounds need a carrier). The remaining syringes contain the test substances, by groups of 4 syringes, in the amounts as indicated in table 1.
• The components are mixed in a Woulff bottle in following order: • 711 ml water • 0.18 ml trace element solution • 355.5 ml buffer solution • 355.5 ml mass element solution • The completed solution is warmed up to 39° C. followed by the addition of 1.83 ml sodium salt solution and the addition of reduction solution at 36° C. The rumen liquor is added, when the indicator turns colourless.
Extraction of the rumen liquor: 750 ml of rumen liquor are added to approximately 1,400 ml of medium solution under continued agitation and CO2-gassing.
Filling the syringes, incubation and determining gas volumes and VFA values: The diluted rumen fluid (24 ml) is added to the glass syringe. The syringes are then incubated for 8 hours at 39° C. under gentle agitation. After 8 hours, the volume of gas produced is measured, and the percentage of methane in the gas phase is determined by gas chromatography.
The food fermented was artificial TMR (44% concentrate, 6% hay, 37% maize silage and 13% grass silage). Gossypol was obtained from Sigma-Aldrich (G8761), and used at a concentration as outlined in table 1. 3-Nitrooxy-propanol (3-NOP) was used at the concentration as outlined in table 1.

As for `O=[N+]([O-])OCCCO` [3-NOP, 3-Nitrooxy-propanol, reference compound], the “Total methane change [% vs. control] found” value (3-NOP 2.5 μM alone) is on record as −12 % vs. control, the “Total methane change [% vs. control] found” value (3-NOP 5 μM alone) is −54 % vs. control and the “Total methane change [% vs. control] found” value (3-NOP 10 μM alone) was −98 % vs. control.

Consider `Cc1cc2c(C(C)C)c(O)c(O)c(C=O)c2c(O)c1-c1c(C)cc2c(C(C)C)c(O)c(O)c(C=O)c2c1O` [G, Gossypol], for which the “Total methane change [% vs. control] found” value reads like this: (G 5 μM alone) −1 % vs. control; (G 10 μM alone) −11 % vs. control; (G 20 μM alone) −15 % vs. control; (G 100 μM alone) −69 % vs. control.
